Patent publication US20200368235A1, “IBRUTINIB COMBINATION THERAPY” (Pharmacyclics LLC, priority 2013, published 2020)

Experiments:
Assay type in all cases: cell-based
[1] = test system: 17 Diffuse Large B Cell Lymphoma (DLBCL) cell lines; experiment: High throughput screen of ibrutinib combinations, growth inhibition by ATP-lite at 72h; conditions: for synergy in combination with JNJ-02 (ibrutinib): synergy score heat map across DLBCL cell lines
Description: (§1) A high throughput screen of 17 Diffuse Large B Cell Lymphoma (DLBCL) cell lines was conducted for their response to Ibrutinib in combination with 99 anti-cancer agents selected from among standard-of-care and emerging therapeutics and targeted agents. The goal of the project was to identify and quantify specific synergies with Ibrutinib to identify pathways that contribute to clinical response. Examples of therapeutics tested included first-line DLBCL therapeutics: RCHOP (Rituximab, Cyclophosphamide, Doxorubicin, Vincristine, Prednisone) or EPOCH (+Etoposide) and Second-line therapeutics: Dexamethasone, Prednisone, Etoposide, Vincristine, Gemcitabine, Carboplatin, Ifosfamide, Bendamustine, Cyclophosphamide, Rituximab, Lenalidomide, and Anthracycline.
(§2) The 17 DLBCL cell lines tested were DB, DOHH-2, HBL-1, HT, NU-DHL-1, OCI-Lyl, OCI-Ly10, OCI-Ly18, OCI-Ly19, OCI-Ly3, OCI-Ly7, Pfeiffer, SU-DHL-5, SU-DHL-6, SU-DHL-8, TMD8 and Toledo. Eight of the cell lines were screened in human MSC-conditioned medium (hMSC-CM) and nine of the cell lines were screened with hMSC-CM+1 ug/ml each of anti-IgM and anti-IgG. The assay was performed in a 384-well format (6×6 HFDR format) with intra-plate replicates (Ibrutinib n=4; enhancers n=2; combination n=1), inter-plate replicates (n=3) and 20 self-crosses. The dose-response matrix screening was designed to detect both types of multi-target interaction, potency shifts or efficacy boosts.
(§3) The cells were seeded 24h before dosing. Cells were dosed with ibrutinib (JNJ-02) and the test compounds at varying concentrations as depicted in FIGS. 18-39G. At T0 (0h after dosing) and T72 (72h after dosing) ATP-lite raw values were obtained. Growth inhibition of the cell culture was measured as follows:
(§4) Measure untreated at time 0 (V0) (the time at which drugs are added), treated (T) and untreated (V) (at assay end point (72h).
(§5) 100% (Total growth inhibition)—treatment viability signal and 0h vehicle viability signal are matched. (T=V0)
(§6) 200% (complete kill)—treatment viability signal is 0. (T=0)
(§7) The growth inhibition measure is sensitive to the cell doubling time (e.g., it measures the fraction of (net) growth inhibition during the assay period). Growth inhibition gives additional valuable information. For example, 0%-100% (growth inhibition) represents % reduction in net increase in the cells with vehicle during drug incubation period, 100% represents no net increase in viability signal at T72 and T0) (i.e., cytostatic) and 100%-200% (killing zone) represents cytotoxic effects.

DOHH-2 cell line = experiment: High throughput combination screen, growth inhibition (ATP-lite)
Description: as §1, §2, §3, §4, §5, §6, §7

OCI-Ly18 cell line = experiment: as above
Description: as §1, §2, §3, §4, §5, §6, §7

TMD8 cell line = experiment: as above
Description: as §1, §2, §3, §4, §5, §6, §7

CN(C)CC[C@H](CSc1ccccc1)Nc1ccc(S(=O)(=O)NC(=O)c2ccc(N3CCN(Cc4ccccc4-c4ccc(Cl)cc4)CC3)cc2)cc1[N+](=O)[O-] [ABT-737]
synergy in combination with JNJ-02 (ibrutinib) [1]: strong synergy and good breadth of activity

C[C@]12C=CC(=O)C=C1CC[C@@H]1[C@@H]2[C@@H](O)C[C@@]2(C)[C@H]1CC[C@]2(O)C(=O)CO [prednisolone]
synergy in combination with JNJ-02 (ibrutinib) [1]: strong synergy and good breadth of activity

rituximab
synergy in combination with JNJ-02 (ibrutinib) [1]: Synergy is observed

O=C(c1ccc(Nc2nccc(-c3cc4ccccc4s3)n2)cc1)N1CCC(N2CCCC2)CC1 [IKK inhibitor VII]
synergy in combination with JNJ-02 (ibrutinib) [1]: strong synergy and good breadth of activity

CCOC(=O)C1=C(N)Oc2ccc(Br)cc2C1C(C#N)C(=O)OCC (stereo not drawn) [HA14-1]
synergy in combination with JNJ-02 (ibrutinib) [1]: modest synergy in selected cell lines

Nc1cccc2c1CN(C1CCC(=O)NC1=O)C2=O (stereo not drawn) [Lenalidomide]
activity as a single agent ([1]; single agent, cell line not given): not active as a single agent
synergy in combination with JNJ-02 (ibrutinib) [1]: synergized
synergy with JNJ-02 (ibrutinib) (DOHH-2 cell line; combination with ibrutinib): does not show synergy
activity as a single agent (DOHH-2 cell line; single agent): active as a single agent
synergy with JNJ-02 (ibrutinib) (OCI-Ly18 cell line; combination with ibrutinib): does not show synergy
activity as a single agent (OCI-Ly18 cell line; single agent): active as a single agent
synergy with JNJ-02 (ibrutinib) (TMD8 cell line; combination with ibrutinib): synergizes
activity as a single agent (TMD8 cell line; single agent): not active as a single agent

CC(C)c1c(C(=O)Nc2ccccc2)c(-c2ccccc2)c(-c2ccc(F)cc2)n1CC[C@@H](O)C[C@@H](O)CC(=O)O [Atrovastatin]
synergy in combination with JNJ-02 (ibrutinib) [1]: synergizes

B1: siltuximab (antibody, chains of the INN, looked up, V domains shown)
VH: EVQLVESGGKLLKPGGSLKLSCAASGFTFSSFAMSWFRQSPEKRLEWVAEISSGGSYTYYPDTVTGRFTISRDNAKNTLYLEMSSLRSEDTAMYYCARGLWGYYALDYWGQGTSVTVSS
VL: QIVLIQSPAIMSASPGEKVTMTCSASSSVSYMYWYQQKPGSSPRLLIYDTSNLASGVPVRFSGSGSGTSYSLTISRMEAEDAATYYCQQWSGYPYTFGGGTKLEIK
synergy in combination with JNJ-02 (ibrutinib) [1]: not
